Assay results as given in patent publication US9464052B2, “Potassium ion channel modulators and uses thereof” (Ramot at Tel-Aviv University Ltd., priority 2008, dated 2016).

Target: KCNQ2/KCNQ3 potassium channel (Homo sapiens, UniProt O43525+O43526)
Test: KCNQ2/KCNQ3 potassium channel current, automated parallel patch clamp (PatchXpress 7000A)
Type: cell-based
Conditions: channel expressed in mammalian cells, ambient temperature
Method: The objective of this study was to examine the in vitro effects of the Example compounds on the KCNQ2/KCNQ3 potassium channel current expressed in mammalian cells using the PatchXpress 7000A (Molecular Devices), an automatic parallel patch clamp system. The test compounds were evaluated at 30 μM with this concentration tested in 3 cells (n=3). The duration of exposure to the test compound concentration was 5 minutes. […] The results for a positive control, flupirtine (Table 2) confirm the sensitivity of the test system to detect KCNQ2/KCNQ3 current enhancement.
All experiments were performed at ambient temperature. Each cell acted as its own control.
A 30 μM concentration of test compound was applied via disposable polyethylene micropipette tips to naïve cells (n=2, where n=the number cells). Each solution exchange, performed in quadruplicate, consisted of aspiration and replacement of 45 of the total 50 μL volume of the extracellular well of the Sealchip16.
Vehicle was applied to naïve cells (n 2, where n=the number cells), for a 5 minute exposure interval. Each solution exchange, performed in quadruplicate, consisted of aspiration and replacement of 45 μL of the total 50 μL volume of the extracellular well of the Sealchip16. After vehicle application, the positive control was applied in the same manner, to verify sensitivity of the assay.
In preparation for a recording session, intracellular solution was loaded into the intracellular compartments of the Sealchip16 planar electrode. Cell suspension was pipetted into the extracellular compartments of the Sealchip16 planar electrode. After establishment of a whole-cell configuration, membrane currents were recorded using dual-channel patch clamp amplifiers in the PatchXpress®system. Before digitization, the current records were low-pass filtered at one-fifth of the sampling frequency.
Data acquisition and analyses were performed using the suite of pCLAMP programs (Axon Instruments, Union City, Calif.). Steady state was defined by the limiting constant rate of change with time (linear time dependence). The steady state before and after test article application was used to calculate the percentage of current inhibited at each concentration. Results obtained from different cell were averaged and presented as Mean±S.D.—see Tables 1 and 2.

[1] = 30 μM test compound, 5 minutes exposure

| Mean % Enhancement of KCNQ2/KCNQ3 [1] | Mean % Enhancement of KCNQ2/KCNQ3 (10 μM positive control, applied after vehicle) | Compound |
| --- | --- | --- |
| 168.2% | – | O=C(Cc1cccc(Nc2c(Cl)cc(Cl)cc2Cl)c1)NCCO [Example 1, N-(2-Hydroxy-ethyl)-2-[3-(2,4,6-trichloro-phenylamino)-phenyl]-acetamide] |
| 162.5% | – | O=C(O)CNC(=O)Cc1cc(Nc2cc(Cl)cc(Cl)c2)ccc1F [Example 2, {2-[5-(3,5-Dichloro-phenylamino)-2-fluoro-phenyl]-acetylamino}-acetic acid] |
| 115.8% | – | O=C(Cc1ccc(Nc2c(Cl)cc(C(F)(F)F)cc2Cl)cc1)NCCO [Example 3, 2-[4-(2,6-Dichloro-4-trifluoromethyl-phenylamino)-phenyl]-N-(2-hydroxy-ethyl)-acetamide] |
| 181.9% | – | O=C(O)CNC(=O)Cc1ccc(Nc2cc(Cl)cc(Cl)c2)cc1 [Example 4, {2-[4-(3,5-Dichlorophenylamino)-phenyl]-acetylamino}-acetic acid] |
| – | 201.0% | CCOC(=O)Nc1ccc(NCc2ccc(F)cc2)nc1N [Flupirtine, reference compound] |
